The target of one series is T1, human IRAK4 (Homo sapiens, UniProt Q9NWZ3).
T1 construct: GST (N); made in house; host or cells: baculovirus-infected Hi5 (BTI-TN-5B1-4) insect cells
T1 sequence (Q9NWZ3 1-460): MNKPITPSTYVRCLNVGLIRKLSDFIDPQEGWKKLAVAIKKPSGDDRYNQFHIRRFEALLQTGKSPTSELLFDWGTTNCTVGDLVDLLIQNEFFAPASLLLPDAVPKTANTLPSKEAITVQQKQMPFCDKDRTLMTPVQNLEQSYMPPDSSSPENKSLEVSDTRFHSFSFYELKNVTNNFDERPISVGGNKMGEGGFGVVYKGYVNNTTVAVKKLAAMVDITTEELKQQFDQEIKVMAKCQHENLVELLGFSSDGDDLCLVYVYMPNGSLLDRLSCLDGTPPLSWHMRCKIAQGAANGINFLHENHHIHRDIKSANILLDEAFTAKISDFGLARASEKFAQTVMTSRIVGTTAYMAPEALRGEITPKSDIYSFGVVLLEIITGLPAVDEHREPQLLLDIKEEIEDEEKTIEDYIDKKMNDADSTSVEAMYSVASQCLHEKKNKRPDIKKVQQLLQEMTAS
The series can be described thus: Human IRAK4 kinase activity inhibition assay (IRAK4 TR-FRET assay). The class given is biochemical. The settings on record: 1 mM ATP, GST-human IRAK4, average or median values. An outline of the steps:
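GST-IRAK4 from insect cells (about 0.2 nM, linear range) was preincubated 15 min with compound (11 concentrations, 20 µM–0.073 nM) in HEPES pH 7.5 with MgCl2 and DTT before kinase reaction on a biotinylated peptide. Phosphopeptide was detected by TR-FRET (Eu anti-mouse-IgG/anti-phosphoserine/streptavidin-XL665, 1 h at 22°C) as the 665/620 nm ratio, normalized to no-compound and no-enzyme controls.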

Another series deals with human PBMCs. The series can be described thus: In vitro LPS-induced cytokine (TNF-α) production in human PBMCs. As to conditions: PBMC, 0.1 µg/mL LPS, 24 hours, 30 min preincubation, read-out: activity (LPS-induced TNF-α secretion in human PBMCs). Format: cell-based. On the procedure: The effect of the compounds of the general formula (I) on induced cytokine production in human PBMCs was examined.
Cytokine production was induced here by LPS, a TLR4 ligand, which leads to activation of the IRAK4-mediated signal path.
The human PBMCs were obtained from anti-coagulated human whole blood. To this end, 15 mL of Ficoll-Paque (Biochrom, Cat. No. L6115) were initially charged in Leucosep tubes and 20 mL of human blood were added. After centrifugation of the blood at 800 g for 15 min at room temperature, the plasma including the platelets was removed and discarded. The PBMCs were transferred into centrifugation tubes and made up with PBS (phosphate-buffered saline) (Gibco, Cat. No. 14190). The cell suspension was centrifuged at room temperature at 250 g for 10 min and the supernatant was discarded. The PBMCs were resuspended in complete medium (RPMI 1640, without L-glutamine (PAA, Cat. No. E15-039), 10% FCS; 50 U/mL penicillin, 50 µg/mL streptomycin (PAA, Cat. No. P11-010) and 1% L-glutamine (Sigma, Cat. No. G7513)). The assay was also carried out in complete medium. The PBMCs were sown in 96-well plates at a cell density of 2.5x10^5 cells/well. The compounds according to the invention were subjected to serial dilution in a constant volume of 100% DMSO and used in the assay at 8 different concentrations in the range from 10 µM to 3 nM such that the final DMSO concentration was 0.4% DMSO. Prior to the actual stimulation, the cells were then preincubated therewith for 30 min. To induce cytokine secretion, the cells were stimulated with 0.1 µg/mL LPS (Sigma, Escherichia coli 0128:B12, Cat. No. L2887) for 24 hours. Cell viability was determined using the CellTiter-Glo luminescent assay (Promega, Cat. No. G7571 (G755/G756A)) in accordance with the manufacturer's instructions. The amount of secreted TNF-α in the cell culture supernatant was determined using the Human ProInflammatory 9-Plex Tissue Culture Kit (MSD, Cat. No. K15007B) in accordance with the instructions of the manufacturer. By way of example, Example Compounds II-2, I-40, I-56, I-61 have activity ≤ 500 nM.

Series [1] in a line: Metabolic stability in human liver microsomes. As to conditions: 1 µM compound; for CLblood, human microsomes: hepatic in vivo blood clearance calculated with well stirred liver model, '(stable)' given beside < 0.01; for Fmax, human microsomes: maximal oral bioavailability calculated with well stirred liver model, 0.5 mg/mL protein, '(stable)' given beside 100.
Description: (§1) The in vitro metabolic stability of test compounds was determined by incubating them at 1 µM in a suspension liver microsomes in 100 mM phosphate buffer, pH7.4 (NaH2PO4 x H2O + Na2HPO4 x 2H2O) and at a protein concentration of 0.5 mg/mL at 37° C. The microsomes were activated by adding a co-factor mix containing 8 mM Glukose-6-Phosphat, 4 mM MgCl2, 0.5 mM NADP and 1 IU/mL G-6-P-Dehydrogenase in phosphate buffer, pH 7.4. The metabolic assay was started shortly afterwards by adding the test compound to the incubation at a final volume of 1 mL. Organic solvent in the incubations was limited to ≤0.01 % dimethylsulfoxide (DMSO) and ≤1% acetonitril. During incubation, the microsomal suspensions were continuously shaken at 580 rpm, and aliquots were taken at 2, 8, 16, 30, 45 and 60 min, to which equal volumes of cold methanol were immediately added. Samples were frozen at -20° C over night, subsequently centrifuged for 15 min at 3000 rpm and the supernatant was analyzed with an Agilent 1200 HPLC-system with LCMS/MS detection.
(§2) The half-life of a test compound was determined from the concentration-time plot. From the half-life the intrinsic clearances were calculated. Together with the additional parameters liver blood flow, specific liver weight and microsomal protein content the hepatic in vivo blood clearance (CL) and the maximal oral bioavailability (Fmax) were calculated using the "well stirred" liver model. The following parameter values were used: Liver blood flow - 1.32 L/h/kg (human), 2.1 L/h/kg (dog); specific liver weight - 21 g/kg (human), 39 g/kg (dog); microsomal protein content - 40 mg/g.
Series [2] in a line: Metabolic stability in dog liver microsomes. The settings on record: 1 µM compound; for CLblood, dog microsomes: hepatic in vivo blood clearance calculated with well stirred liver model, '(stable)' given beside < 0.01; for Fmax, dog microsomes: maximal oral bioavailability calculated with well stirred liver model, 0.5 mg/mL protein, '(stable)' given beside 100. The class given is in vitro ADME. On the procedure:
From the half-life the intrinsic clearances were calculated.

Another series addresses T2, canine Irak4 (Canis lupus familiaris, UniProt A0A8I3S726).
T2 sequence (A0A8I3S726 2-459): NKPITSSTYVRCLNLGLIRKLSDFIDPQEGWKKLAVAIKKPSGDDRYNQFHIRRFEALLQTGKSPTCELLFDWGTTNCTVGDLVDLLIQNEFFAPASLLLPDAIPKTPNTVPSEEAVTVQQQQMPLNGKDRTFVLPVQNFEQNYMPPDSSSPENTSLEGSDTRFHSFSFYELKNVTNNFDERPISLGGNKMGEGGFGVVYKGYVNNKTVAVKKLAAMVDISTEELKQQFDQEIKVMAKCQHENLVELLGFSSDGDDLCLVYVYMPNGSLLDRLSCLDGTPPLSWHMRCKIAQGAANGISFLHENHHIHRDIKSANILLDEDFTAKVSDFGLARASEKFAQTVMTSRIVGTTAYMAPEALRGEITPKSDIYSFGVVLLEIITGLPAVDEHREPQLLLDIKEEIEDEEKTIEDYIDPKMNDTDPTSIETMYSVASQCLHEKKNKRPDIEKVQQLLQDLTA
The experiment in a line: Canine Irak4 kinase assay (TR-FRET). The class given is biochemical. The settings on record: 1 mM ATP, His6-tagged canine Irak4, average or median values. On the technique in general: TR-FRET usually uses a lanthanide donor and a delayed reading to cut background.

The conditions of series [3]: 1 µM, pH 7.4.
Description: as §1, §2

The structures appear in SMILES notation. Where two headings read alike, the source gives them in different places.

For `C[C@H]1C[C@H](Nc2nc(N3CCC(C(C)(C)O)CC3)c3cnn(-c4cccc(C(F)(F)F)c4)c3n2)CN1` [Example I-40, 2-[1-(6-{[(3S,5S)-5-methylpyrrolidin-3-yl]amino}-1-[3-(trifluoromethyl)phenyl]-1H-pyrazolo[3,4-d]pyrimidin-4-yl)piperidin-4-yl]propan-2-ol], on human IRAK4, the IC50 came out at 3.68 nM. Further, in the series with human PBMCs, the IC50 was at most 500 nM. For the same compound, in series [1], the “CLblood, human microsomes” value is 1.2 mL/min/kg and the “Fmax, human microsomes” value is reported as 95%.
For the compound `O=S1(=O)CCC(Nc2nc(N3CC(N4CCOCC4)C3)c3cnn(-c4cccc(C(F)F)c4)c3n2)CC1` [II-2, 1-[3-(difluoromethyl)phenyl]-N-(1,1-dioxidotetrahydro-2H-thiopyran-4-yl)-4-[3-(morpholin-4-yl)azetidin-1-yl]-1H-pyrazolo[3,4-d]pyrimidin-6-amine], the IC50 at human IRAK4 is 6.68 nM. Besides, in series [2], the “CLblood, dog microsomes” value is 1.2 mL/min/kg and the “Fmax, dog microsomes” value is given as 97%. Moreover, the IC50 in the series with human PBMCs is at most 500 nM. Besides, in series [1], the “CLblood, human microsomes” value is 2.5 mL/min/kg and the “Fmax, human microsomes” value is 88%.
For `CC1(O)CCN(C2CN(c3nc(N[C@H]4C[C@H](S(C)(=O)=O)C4)nc4c3cnn4-c3cccc(C(F)(F)F)c3)C2)CC1` [Example I-61, 4-methyl-1-[1-(6-{[trans-3-(methylsulfonyl)cyclobutyl]amino}-1-[3-(trifluoromethyl)-phenyl]-1H-pyrazolo[3,4-d]pyrimidin-4-yl)azetidin-3-yl]piperidin-4-ol], the IC50 against human IRAK4 came to 3.28 nM. In addition, the IC50 in the series with human PBMCs was at most 500 nM. In addition, in series [1], the “CLblood, human microsomes” value was 5.17 mL/min/kg and the “Fmax, human microsomes” value was 77%.
On to `CC(C)(O)C1CCN(c2nc(NC3CN(S(C)(=O)=O)C3)nc3c2cnn3-c2cccc(C(F)(F)F)c2)CC1` [Example I-14, 2-[1-(6-{[1-(methylsulfonyl)azetidin-3-yl]amino}-1-[3-(trifluoromethyl)phenyl]-1H-pyrazolo[3,4-d]pyrimidin-4-yl)piperidin-4-yl]propan-2-ol], for which the IC50 against human IRAK4 was 12 nM. At canine Irak4, the IC50 was 12.7 nM. Also, in series [1], the “CLblood, human microsomes” value was 1.2 mL/min/kg and the “Fmax, human microsomes” value is 95%.
At human IRAK4, `O=C1C[C@H](Nc2nc(N3CC(CC(=O)N4CC5CC(C4)O5)C3)c3cnn(-c4cccc(C(F)(F)F)c4)c3n2)CN1` [Example I-52, (4S)-4-[(4-{3-[2-(6-oxa-3-azabicyclo[3.1.1]heptan-3-yl)-2-oxoethyl]azetidin-1-yl}-1-[3-(trifluoromethyl)phenyl]-1H-pyrazolo[3,4-d]pyrimidin-6-yl)amino]pyrrolidin-2-one] showed an IC50 of 7.99 nM. Also, in series [3], the “CLblood, human microsomes” value is < 0.01 (stable) L/h/kg and the “Fmax, human microsomes” value was 100 (stable) %.
`CC(C)(O)C1CCN(c2nc(N[C@H]3C[C@](C)(N)C3)nc3c2cnn3-c2cccc(C(F)(F)F)c2)CC1` [Example I-57, 2-(1-{6-[(trans-3-amino-3-methylcyclobutyl)amino]-1-[3-(trifluoromethyl)phenyl]-1H-pyrazolo[3,4-d]pyrimidin-4-yl}piperidin-4-yl)propan-2-ol] registered an IC50 on human IRAK4 of 1.82 nM. At canine Irak4, this compound displayed an IC50 of 1.98 nM. Further, in series [1], the “CLblood, human microsomes” value was 0.67 mL/min/kg and the “Fmax, human microsomes” value is 97%.
With `CS(=O)(=O)[C@H]1C[C@H](Nc2nc(N3CC(N4CCOCC4)C3)c3cnn(-c4cccc(C(F)(F)F)c4)c3n2)C1` [Example I-56, N-[trans-3-(methylsulfonyl)cyclobutyl]-4-[3-(morpholin-4-yl)azetidin-1-yl]-1-[3-(trifluoromethyl)phenyl]-1H-pyrazolo[3,4-d]pyrimidin-6-amine], the IC50 against human IRAK4 turned out to be 3.46 nM. For the same compound, in series [2], the “CLblood, dog microsomes” value is 1 mL/min/kg and the “Fmax, dog microsomes” value is 97%. Besides, the IC50 with human PBMCs was at most 500 nM. In series [1], the “CLblood, human microsomes” value was 1 mL/min/kg and the “Fmax, human microsomes” value was 95%.

The values are drawn from patent EP3800188A1, “SUBSTITUTED PYRAZOLOPYRIMIDINES AS IRAK4 INHIBITORS” (Bayer AG, priority 2019, dated 2021).
